The values that follow come from PMC12136037, “Type II kinase inhibitors that target Parkinson’s disease–associated LRRK2” (Science Advances, 2025).

SMILES strings stand for the structures. Values joined by “and” are separate entries in the source; they are usually repeats but may differ in a detail not shown here. Identical values can stand only once.

One assay has as its target T1, LRRK2^RCKW (Homo sapiens, UniProt Q5S007).
T1 construct: LRRK2 R1327 to E2527; His6-Z-tag (TEV cleavable) (N, cleaved yes); host or cells: Sf9 insect cells (baculovirus)
T1 sequence (Q5S007 1327-2527): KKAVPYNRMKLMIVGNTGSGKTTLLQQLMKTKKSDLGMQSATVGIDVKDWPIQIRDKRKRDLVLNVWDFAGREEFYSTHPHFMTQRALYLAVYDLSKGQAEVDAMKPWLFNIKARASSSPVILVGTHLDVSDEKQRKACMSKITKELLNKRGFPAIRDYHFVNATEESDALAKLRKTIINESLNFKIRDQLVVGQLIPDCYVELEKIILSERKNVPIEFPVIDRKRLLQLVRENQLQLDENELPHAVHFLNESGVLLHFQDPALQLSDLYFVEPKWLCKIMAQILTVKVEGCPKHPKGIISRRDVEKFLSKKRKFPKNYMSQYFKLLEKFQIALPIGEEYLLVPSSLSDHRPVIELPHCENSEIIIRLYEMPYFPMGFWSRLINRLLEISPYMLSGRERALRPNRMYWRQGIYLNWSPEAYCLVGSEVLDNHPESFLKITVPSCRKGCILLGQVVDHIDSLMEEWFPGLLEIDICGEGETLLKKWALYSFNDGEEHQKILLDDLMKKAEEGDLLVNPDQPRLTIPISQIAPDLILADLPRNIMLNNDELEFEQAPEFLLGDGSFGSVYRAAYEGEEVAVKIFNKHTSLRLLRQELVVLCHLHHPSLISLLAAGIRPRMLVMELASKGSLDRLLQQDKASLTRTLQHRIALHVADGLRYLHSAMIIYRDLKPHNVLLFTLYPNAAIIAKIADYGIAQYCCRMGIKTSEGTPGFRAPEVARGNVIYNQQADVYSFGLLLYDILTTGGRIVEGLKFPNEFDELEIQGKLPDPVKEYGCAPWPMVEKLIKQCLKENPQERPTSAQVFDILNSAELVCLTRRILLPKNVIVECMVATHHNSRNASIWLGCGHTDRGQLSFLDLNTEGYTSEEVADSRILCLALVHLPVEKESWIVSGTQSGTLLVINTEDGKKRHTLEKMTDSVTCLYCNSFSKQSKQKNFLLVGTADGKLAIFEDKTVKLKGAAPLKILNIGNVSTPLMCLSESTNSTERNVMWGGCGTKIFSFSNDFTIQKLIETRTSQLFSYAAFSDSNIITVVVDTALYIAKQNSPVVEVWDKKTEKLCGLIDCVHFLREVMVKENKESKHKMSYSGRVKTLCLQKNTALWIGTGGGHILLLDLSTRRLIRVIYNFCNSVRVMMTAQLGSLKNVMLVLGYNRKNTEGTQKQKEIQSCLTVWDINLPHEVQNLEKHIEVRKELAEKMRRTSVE
As to the kind of experiment: Biochemical LRRK2 activity assay (PhosphoSense, AssayQuant SOX peptide AQT0615). As to conditions: for IC50: LRRK2^RCKW kinase activity, in vitro; for normalized response (LRRK2 activity): normalized to 0% (no kinase) and 100% (no inhibitor) control, two singlicate columns per compound. The method in brief: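 Controls lacked protein and compound (0%) or compound only (100%). IC50 derived by nonlinear regression of normalized response versus log[inhibitor].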

The target of the next assay is T2, LRRK2^KW (Homo sapiens, UniProt Q5S007).
T2 construct: LRRK2 R1847 to E2527; His6-Z-tag (TEV cleavable) (N, cleaved yes); host or cells: Sf9 insect cells (baculovirus)
T2 sequence (Q5S007 1847-2527): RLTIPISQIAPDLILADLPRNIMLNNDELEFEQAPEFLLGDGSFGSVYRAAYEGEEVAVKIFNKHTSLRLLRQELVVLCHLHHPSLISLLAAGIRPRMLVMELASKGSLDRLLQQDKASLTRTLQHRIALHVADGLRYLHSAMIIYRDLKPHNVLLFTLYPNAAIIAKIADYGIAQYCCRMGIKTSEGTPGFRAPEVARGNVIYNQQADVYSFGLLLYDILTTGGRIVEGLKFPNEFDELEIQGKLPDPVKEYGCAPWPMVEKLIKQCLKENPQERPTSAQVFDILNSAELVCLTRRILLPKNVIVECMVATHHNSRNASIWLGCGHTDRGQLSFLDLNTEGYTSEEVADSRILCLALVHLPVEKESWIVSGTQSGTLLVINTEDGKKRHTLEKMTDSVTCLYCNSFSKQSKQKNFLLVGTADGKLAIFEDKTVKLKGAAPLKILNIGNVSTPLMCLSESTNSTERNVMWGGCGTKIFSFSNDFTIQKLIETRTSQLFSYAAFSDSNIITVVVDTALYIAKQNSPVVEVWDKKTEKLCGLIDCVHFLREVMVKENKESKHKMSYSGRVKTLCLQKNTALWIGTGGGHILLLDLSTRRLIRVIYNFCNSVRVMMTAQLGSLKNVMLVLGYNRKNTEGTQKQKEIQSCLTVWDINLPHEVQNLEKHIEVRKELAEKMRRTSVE
As to the kind of experiment: DSF thermal stabilization of LRRK2^KW. As to conditions: for ∆Tm (K): DSF, LRRK2^KW, 10 μM inhibitor. The assay is classed as binding. The procedure, abridged:
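DSF on 4 μM LRRK2^KW in 20 mM Hepes pH 7.4, 150 mM NaCl, 0.5 mM TCEP, 0.5% glycerol, 20 μM GDP, 2.5 mM MgCl2 with SYPRO Orange; inhibitor at 10 μM. Tm was taken as the minimum of the first derivative of fluorescence versus temperature, relative to control.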

What is called IC50 is the concentration that inhibits the measured activity by half. The low end stands for greater potency in that assay, the high end for weaker potency in that assay. For the molecule `COc1cc(C(=O)N2CCOCC2)c(F)cc1Nc1nc(N(C)C)c2c(Cl)c[nH]c2n1` [Compound 36], on LRRK2^RCKW, it took 4.96 ± 0.11 nM to reach half-maximal inhibition (IC50). Also, the “normalized response (LRRK2 activity)” value at LRRK2^RCKW (log[inhibitor(mol)] -5.12494) is -4.747% and -10.7141%; at LRRK2^RCKW (log[inhibitor(mol)] -5.60206), -11.8877% and -7.237%; on LRRK2^RCKW (log[inhibitor(mol)] -6.30103), -22.7354% and -19.8398%; on LRRK2^RCKW (log[inhibitor(mol)] -6.90309), -16.5877% and -9.211%; at LRRK2^RCKW (log[inhibitor(mol)] -7.30103), -3.623% and 0.9398%; at LRRK2^RCKW (log[inhibitor(mol)] -7.60206), 12.0233% and 5.13%. In addition, the “normalized response (LRRK2 activity)” value at LRRK2^RCKW (log[inhibitor(mol)] -8.09691) was 39.1206% and 42.4988%; on LRRK2^RCKW (log[inhibitor(mol)] -8.61979), 81.2335% and 75.689%; on LRRK2^RCKW (log[inhibitor(mol)] -9.09691), 74.4661% and 78.5518%; at LRRK2^RCKW (log[inhibitor(mol)] -9.39794), 100.642% and 97.3515%. In addition, the “∆Tm (K)” value at LRRK2^KW stood at 16.0 K.
Regarding `COc1cc2c(Oc3ccc(NC(=O)C4(C(=O)Nc5ccc(F)cc5)CC4)cc3F)ccnc2cc1OCCCN1CCOCC1` [Foretinib, reference compound], the “normalized response (LRRK2 activity)” value on LRRK2^RCKW (log[inhibitor(mol)] -5.12494) is -8.307% and -10.693%; at LRRK2^RCKW (log[inhibitor(mol)] -5.60206) it was -1.8523% and 5.65%; on LRRK2^RCKW (log[inhibitor(mol)] -6.30103) it was 28.3235% and 31.8978%; at LRRK2^RCKW (log[inhibitor(mol)] -6.90309) it was 69.5315% and 73.0571%; on LRRK2^RCKW (log[inhibitor(mol)] -7.30103), 85.8697% and 90.8136%; on LRRK2^RCKW (log[inhibitor(mol)] -7.60206), 93.5528% and 93.9107%. The “normalized response (LRRK2 activity)” value at LRRK2^RCKW (log[inhibitor(mol)] -8.09691) is 88.4499% and 91.6177%; at LRRK2^RCKW (log[inhibitor(mol)] -8.61979) it was 92.1788% and 92.8283%; at LRRK2^RCKW (log[inhibitor(mol)] -9.09691), 95.8547% and 84.8889%; on LRRK2^RCKW (log[inhibitor(mol)] -9.39794), 98.1654% and 60.9912%. Moreover, at LRRK2^KW, the “∆Tm (K)” value was 12.1 ± 0.1 K. Also, the “dTm LRRK2(KW) [K]” value on LRRK2^KW (screen of 31 type-II inhibitors, Table S1) came to 11.5 K.
For the molecule `Cc1ccc(-n2nc(C(C)(C)C)cc2NC(=O)Nc2cccc(-c3c[nH]c4nc(Cl)nc(N5CCOCC5)c34)c2)cc1` [Compound 30], on LRRK2^RCKW, the IC50 worked out at 135 ± 2 nM. In addition, the “normalized response (LRRK2 activity)” value was -8.095% and -6.809% at LRRK2^RCKW (log[inhibitor(mol)] -5.12494); 75.5755% and 70.6669% on LRRK2^RCKW (log[inhibitor(mol)] -5.60206); 8.742% and 11.7467% on LRRK2^RCKW (log[inhibitor(mol)] -6.30103); 50.7191% and 51.183% on LRRK2^RCKW (log[inhibitor(mol)] -6.90309); 75.6682% and 82.0657% at LRRK2^RCKW (log[inhibitor(mol)] -7.30103); 86.9301% and 90.6015% at LRRK2^RCKW (log[inhibitor(mol)] -7.60206). Besides, the “normalized response (LRRK2 activity)” value on LRRK2^RCKW (log[inhibitor(mol)] -8.09691) is 94.0388% and 92.0065%; at LRRK2^RCKW (log[inhibitor(mol)] -8.61979), 101.276% and 93.5219%; on LRRK2^RCKW (log[inhibitor(mol)] -9.09691) it was 104.187% and 96.8267%; on LRRK2^RCKW (log[inhibitor(mol)] -9.39794), 100.869% and 63.9823%. In addition, the “∆Tm (K)” value was 18.0 K on LRRK2^KW (listed as 30 (RN277)) and 18 K on LRRK2^KW (listed as RN277).
